36 compounds from patent US20090291945A1, “CYSTEINE PROTEASE INHIBITORS” (Teijin Pharma Limited, priority 2008, published 2009) can be followed below.

For the test, the target named is T1, cathepsin K (Homo sapiens, UniProt P43235).
T1 construct: the active enzyme was obtained as the enzyme fraction by using detergent containing lysis buffer; made in house; host or cells: HEK293T (GenHunter Corporation), transient expression; detergent lysate used as enzyme fraction
T1 sequence (P43235 115-329): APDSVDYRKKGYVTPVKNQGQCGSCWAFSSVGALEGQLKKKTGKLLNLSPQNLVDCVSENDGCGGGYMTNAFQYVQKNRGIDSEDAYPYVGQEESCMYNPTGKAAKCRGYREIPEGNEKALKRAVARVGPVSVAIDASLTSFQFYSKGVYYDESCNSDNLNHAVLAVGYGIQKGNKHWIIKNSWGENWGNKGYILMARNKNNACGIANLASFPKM
Put plainly: Cathepsin K inhibitory activity (fluorescent substrate Z-Leu-Arg-MCA). Format: biochemical. To be noted: enzyme expressed in HEK293T; 15 min preincubation, 30 min reaction at room temperature, pH 5.5; read-out: Activity Intensity (cathepsin K inhibitory activity, pIC50 class) (converted). The method, then: Cathepsin K inhibitory activities of the compounds synthesized according to the methods of the above examples were measured.
Cathepsin K used for evaluation of inhibitory activity was transiently expressed in an animal cell HEK293T (made by GenHunter Corporation) and the active enzyme was obtained as the enzyme fraction by using detergent containing lysis buffer.
The enzyme solution A was prepared at 2.1 times final concentration by diluting the enzyme fraction with assay buffer (50 mM sodium acetate, 50 mM sodium chloride, 2 mM DTT, pH 5.5). The test compound solutions B were prepared at 50 times final target concentrations by dimethylsulfoxide (DMSO). As a substrate solution C, a solution of a fluorescent substrate, benzyloxycarbonyl-L-leucyl-L-arginyl-4-methyl-coumaryl-7-amide (Z-Leu-Arg-MCA (Peptide Institute Inc.), was prepared at 10 μM by an assay buffer.
To the enzyme solution A (38.4 μL) were added the test compound solutions B (1.6 μL) and mixed individually. The mixtures were incubated at room temperature for 15 minutes. To the incubated solutions were added the substrate solution C (40 μL) and the mixtures were reacted at room temperature for 30 minutes respectively. The fluorescence intensities of the enzyme reaction solutions were measured at excitation wavelength of 355 nm and measurement wavelength of 460 nm and the enzyme activities were calculated from these fluorescence intensities caused by 7-amino-4-methylcoumarine released. The enzyme activity with using DMSO instead of the test compound solution B was taken as 100% and the inhibitory rates at each concentration of the test compound were calculated. The […] response curve was fitted to the plots. The 50% inhibitory concentration against cathepsin K was calculated from this curve.
Note that the symbols (+, ++, and +++) in this table represent the inhibitory activity values as below. Here, pIC50 is the value representing a negative logarithm of IC50, (−log10(IC50)). IC50 is a 50% inhibitory concentration.
In the case of `CC[C@@H](CNc1ccc(OCC(=O)OCc2ccccc2)cc1OC)NC(=O)[C@H](CC(C)(C)F)N[C@@H](c1ccc(Br)cc1)C(F)(F)F` [Compound 20, Phenylmethyl 2-{4-[((2S)-2-{(2S)-2-{[(1S)-2,2,2-trifluoro-1-(4-bromophenyl)ethyl]amino}-4-fluoro-4-methylpentanoylamino}butyl)amino]-3-methoxyphenoxy}acetate], the IC50 was no more than 3.16 nM.
`CC[C@@H](CNc1ccc(N2CCOCC2)cc1)NC(=O)[C@H](CC(C)C)N[C@@H](c1cccnc1)C(F)(F)F` [Compound 27]: the IC50 was no more than 3.16 nM.
Turning to `COc1ccc(NC[C@H](CC(C)C)NC(=O)[C@H](CC(C)C)N[C@@H](c2ccccc2)C(F)(F)F)c(OC)c1` [Compound 64], the IC50 is no more than 3.16 nM.
Turning to `CC[C@@H](CNc1ccc(N2CCOCC2)cc1)NC(=O)C1(NC(c2ccccc2)C(F)(F)F)CCCCC1` (stereo partly drawn) [Compound 11, N-((1S)-1-{[(4-morpholin-1-ylphenyl)amino]methyl}propyl) {[(2,2,2-trifluoro-1-phenylethyl)amino]cyclohexyl}carboxamide], the IC50 is 3.16 to 31.6 nM.
As for `CCOc1ccc(NC[C@H](CC)NC(=O)[C@H](CC(C)(C)F)N[C@@H](c2ccc(-c3ccc(S(C)(=O)=O)cc3)cc2)C(F)(F)F)cc1OCC` [Compound 4, (2S)—N-((1S)-1-{[(3,4-diethoxyphenyl)amino]methyl}propyl)-2-[((1S)-2,2,2-trifluoro-1-{4-[4-(methylsulfonyl)phenyl]phenyl}ethyl)amino]-4-fluoro-4-methylpentanamide], the IC50 is no more than 3.16 nM.
The figure for `CC[C@@H](CNc1ccc(OCCS(C)(=O)=O)cc1OC)NC(=O)[C@H](CC(C)C)N[C@@H](c1cccnc1)C(F)(F)F` [Compound 39] is 3.16 to 31.6 nM; for `CC[C@@H](CNc1ccc(N2CCOCC2)cc1)NC(=O)[C@H](CC(C)(C)F)N[C@@H](c1ccc(-c2ccc(S(C)(=O)=O)cc2)cc1)C(F)(F)F` [Compound 9, (2S)—N-((1S)-1-{[(4-morpholin-4-ylphenyl)amino]methyl}propyl)-2-[((1S)-2,2,2-trifluoro-1-{4-[4-(methylsulfonyl)phenyl]phenyl}ethyl)amino]-4-fluoro-4-methylpentanamide] it is no more than 3.16 nM.
Take `CC[C@@H](CNc1ccc(N(C)C)cc1)NC(=O)C1(NC(c2ccccc2)C(F)(F)F)CCCCC1` (stereo partly drawn) [Compound 14]: the IC50 was 31.6 to 10000 nM.
In the case of `COc1ccc(NC[C@H](CCSC)NC(=O)[C@H](CC(C)C)N[C@@H](c2ccccc2)C(F)(F)F)c(OC)c1` [Compound 66], the IC50 was 3.16 to 31.6 nM.
`CC[C@@H](CNc1ccc(OCCS(C)(=O)=O)cc1OC)NC(=O)[C@H](CC(C)(C)F)N[C@@H](c1ccc(Br)cc1)C(F)(F)F` [Compound 138-2, (2S)-2-{[(1S)-1-(4-bromophenyl)-2,2,2-trifluoroethyl]amino}-N-{(1S)-1-[({2-methoxy-4-[2-(methylsulfonyl)ethoxy]phenyl}amino)methyl]propyl}-4-fluoro-4-methylpentanamide]: the IC50 is no more than 3.16 nM.
For `CC[C@@H](CNc1ccc2c(c1)OCO2)NC(=O)[C@H](CC(C)C)N[C@@H](c1ccc(OC)cc1)C(F)(F)F` [Compound 100], the IC50 is 31.6 to 10000 nM.
The same measure for `CC(C)C[C@H](N[C@@H](c1ccccc1)C(F)(F)F)C(=O)N[C@@H](CN)CNc1ccc(N2CCOCC2)cc1` [Compound 128]: 3.16 to 31.6 nM; for `CCOC(=O)CCCCOc1ccc(NC[C@H](CC)NC(=O)[C@H](CC(C)C)N[C@@H](c2ccccc2)C(F)(F)F)c(OC)c1` [Compound 86]: no more than 3.16 nM.
`CC[C@@H](CNc1ccc(N2CCSCC2)cc1)NC(=O)[C@H](CC(C)(C)F)N[C@@H](c1ccc(Br)cc1)C(F)(F)F` [Compound 18]: the IC50 is no more than 3.16 nM.
Consider `CC[C@@H](CNc1ccc(N(C)C)cc1)NC(=O)[C@H](CC(C)(C)F)N[C@@H](c1ccc(-c2ccc(S(C)(=O)=O)cc2)cc1)C(F)(F)F` [Compound 12], for which the IC50 was no more than 3.16 nM.
With `CC[C@@H](CNc1ccc(OC)cc1OC)NC(=O)[C@H](CC(C)C)N[C@@H](c1ccc(OC)cc1)C(F)(F)F` [Compound 95], the IC50 was no more than 3.16 nM.
As for `CC[C@@H](CNc1ccc(N2CCSCC2)cc1OC)NC(=O)[C@H](CC(C)(C)F)N[C@@H](c1ccc(Br)cc1)C(F)(F)F` [Compound 17], the IC50 is no more than 3.16 nM.
The same measure for `CC[C@@H](CNc1ccc(OC)cc1)NC(=O)[C@H](CC(C)(C)F)N[C@@H](c1ccc(-c2ccc(S(C)(=O)=O)cc2)cc1)C(F)(F)F` [Compound 1, (2S)—N-((1S)-1-{[(4-methoxyphenyl)amino]methyl}propyl)-2-[((1S)-2,2,2-trifluoro-1-{4-[4-(methylsulfonyl)phenyl]phenyl}ethyl)amino]-4-fluoro-4-methylpentanamide]: 3.16 to 31.6 nM; for `CC[C@@H](CNc1ccc(OCCS(C)(=O)=O)cc1OC)NC(=O)[C@H](CC(C)C)N[C@@H](c1ccc(=O)[nH]c1)C(F)(F)F` [Compound 41]: no more than 3.16 nM.
Regarding `CC(C)C[C@H](N[C@@H](c1ccccc1)C(F)(F)F)C(=O)N[C@@H](CCCNC(=O)OCc1ccccc1)CNc1ccc(N2CCOCC2)cc1` [Compound 103], the IC50 is no more than 3.16 nM.
Turning to `CC[C@@H](CNc1ccc(N2CCOCC2)cc1)NC(=O)[C@H](CC(C)C)N[C@@H](Cc1ccccc1)C(F)(F)F` [Compound 37], the IC50 was no more than 3.16 nM.
On to `CC[C@@H](CNc1ccc(N(C)C)cc1)NC(=O)[C@H](CC(C)(C)F)N[C@@H](c1ccc(Br)cc1)C(F)(F)F` [Compound 13], for which the IC50 is no more than 3.16 nM.
The figure for `CC[C@@H](CNc1ccc(N2CCOCC2)cc1)NC(=O)[C@H](CC(C)C)N[C@@H](c1ccccn1)C(F)(F)F` [Compound 32] is no more than 3.16 nM.
Regarding `CC[C@@H](CNc1ccc(OCCSC)cc1OC)NC(=O)[C@H](CC(C)(C)F)N[C@@H](c1ccc(Br)cc1)C(F)(F)F` [Compound 16, (2S)-2-{[(1S)-1-(4-bromophenyl)-2,2,2-trifluoroethyl]amino}-N-[(1S)-1-({[2-methoxy-4-(2-methylthioethoxy)phenyl]amino}methyl)propyl]-4-fluoro-4-methylpentanamide], the IC50 is no more than 3.16 nM.
Take `CC[C@@H](CNc1ccccc1N1CCOCC1)NC(=O)[C@H](CC(C)C)N[C@@H](c1ccccc1)C(F)(F)F` [Compound 88]: the IC50 is 31.6 to 10000 nM.
As for `CC[C@@H](CNc1ccc(OC)nc1OC)NC(=O)[C@H](CC(C)(C)F)N[C@@H](c1ccc(Br)cc1)C(F)(F)F` [Compound 19], the IC50 was 3.16 to 31.6 nM.
As to `CCOC(=O)C1CCN(c2ccc(NC[C@H](CC)NC(=O)[C@H](CC(C)C)N[C@@H](c3ccccc3)C(F)(F)F)cc2)CC1` [Compound 49], the IC50 is no more than 3.16 nM.
The same measure for `COc1ccc(NC[C@H](CCS(C)(=O)=O)NC(=O)[C@H](CC(C)C)N[C@@H](c2cccnc2)C(F)(F)F)c(OC)c1` [Compound 83]: 3.16 to 31.6 nM; for `CC(C)C[C@H](N[C@@H](c1ccc(=O)[nH]c1)C(F)(F)F)C(=O)N[C@@H](C)CNc1ccc(N2CCOCC2)cc1` [Compound 72]: no more than 3.16 nM; for `CC[C@@H](CNc1ccc(N2CCC(O)CC2)cc1)NC(=O)[C@H](CC(C)C)N[C@@H](c1ccccc1)C(F)(F)F` [Compound 108]: no more than 3.16 nM.
As to `CC[C@@H](CNc1ccc(OC)cc1OC)NC(=O)[C@H](CC(C)(C)C)N[C@@H](c1ccccc1)C(F)(F)F` [Compound 59], the IC50 was no more than 3.16 nM.
For the compound `COc1ccc(NC[C@H](CO)NC(=O)[C@H](CC(C)(C)F)N[C@@H](c2ccc(-c3ccc(S(C)(=O)=O)cc3)cc2)C(F)(F)F)cc1` [Compound 3, N-((1R)-2-hydroxy-1-{[(4-methoxyphenyl)amino]methyl}ethyl)(2S)-2-[((1S)-2,2,2-trifluoro-1-{4-[4-(methylsulfonyl)phenyl]phenyl}ethyl)amino]-4-fluoro-4-methylpentanamide], the IC50 is 3.16 to 31.6 nM.
For the compound `CCOC(=O)c1ccnn1-c1ccc(NC[C@H](CC)NC(=O)[C@H](CC(C)C)N[C@@H](c2ccccc2)C(F)(F)F)cc1` [Compound 114], the IC50 was 31.6 to 10000 nM.
As to `CC[C@@H](CNc1ccc(N2CCOCC2)cc1)NC(=O)[C@H](CC(C)C)N[C@@H](c1ccc2c(c1)OCO2)C(F)(F)F` [Compound 29], the IC50 was no more than 3.16 nM.
On to `CC[C@@H](CNc1ccc(OC)cc1OC)NC(=O)[C@H](Cc1ccccc1)N[C@@H](c1cccs1)C(F)(F)F` [Compound 62], for which the IC50 is 31.6 to 10000 nM.
The same measure for `CC[C@@H](CNc1ccc(N2CCCC2=O)cc1)NC(=O)[C@H](CC(C)C)N[C@@H](c1ccccc1)C(F)(F)F` [Compound 53]: 3.16 to 31.6 nM.
